According to patent US5849326A, “Method for treating neuronal diseases via administration of 2-acylaminopropanol derivatives” (Seikagaku Corporation, priority 1993, dated 1998):
Residue numbers refer to the chain shown, from its start. Each block holds one compound with its values, some of them ahead of it.

Assays:
ICR mice = assay: General toxicity, continuous 10-day intraperitoneal administration; assay type: in vivo; conditions: 100 mg/kg/day intraperitoneally for 10 days
[1] = test system: primary cultured rat cerebral neurocytes; assay: Ganglioside content (ganglioside-binding sialic acid) of primary cultured neurocytes; assay type: cell-based
Experimental: Rat fetuses at the 18th day of pregnancy were taken out, and forebrain base portions of the fetuses were extracted aseptically and cut into small pieces by scissors. After the pieces were treated with papain (in a phosphate buffer containing 0.02% L-cysteine containing 180 U papain, 0.02% bovine serum albumin and 0.5% glucose, pH 7.4, at 37° C. for 30 minutes), they were washed with a mixed solution (DF medium) of 1:1 of a Dulbecco modified Eagle's medium and a Ham's F12 medium and suspended in a DF medium containing 5% bovine fetal serum and 5% equine serum. This neurocyte suspension was charged into a culture plate with 24 wells (Falcon, Primaria) in an amount of 1×10^6 cells/well. […] After completion of the culture, the cells in the respective wells were washed with a phosphate buffer and recovered by rubber policeman. Further, a ganglioside fraction was extracted by adding chloroform/methanol/water (1:2:0.8) and shaking the mixture for 5 minutes. […] The no addition group (control) which was defined as 100% was compared with the test groups, and the results are shown in Table 1.

[2] = test system: rat cerebral cortex neurocytes; assay: Synapse formation measured as frequency of intracellular Ca2+ fluctuation; assay type: cell-based; conditions: FIG. 4
From the text: Further, as a method of measuring synapse formation relatively simply and easily, there has been developed a multipoint observation system of Ca^2+ in neurocytes using Fura-2, and it has been confirmed that the number of synapse formation is in direct proportion to frequency of intracellular Ca^2+ fluctuation in synchronization therewith (Br. J. Pharmacol., 89, 191-198, 1986; Neurosci. Lett., 78, 69-74, 1987). We investigated influences of L-threo-FDMP and D-threo-PDMP exerted on synapse formation between rat cerebral cortex neurocytes by using this method, and the results are shown below.

[3] = target: T1, GlcCer (glucosylceramide) synthase (Rattus norvegicus, UniProt Q9R0E0); assay: Enzyme activity in treated cerebral cortex culture: GlcCer synthase; assay type: cell-based; conditions: culture treated with 15 μM for 40 hours
T1 construct: primary culture of cerebral cortex tissue specimens of Wister albino rats; endogenous in cells; host or cells: primary culture of rat (Wistar) cerebral cortex, sonicated after 40 h with compound
T1 sequence (Q9R0E0 1-394): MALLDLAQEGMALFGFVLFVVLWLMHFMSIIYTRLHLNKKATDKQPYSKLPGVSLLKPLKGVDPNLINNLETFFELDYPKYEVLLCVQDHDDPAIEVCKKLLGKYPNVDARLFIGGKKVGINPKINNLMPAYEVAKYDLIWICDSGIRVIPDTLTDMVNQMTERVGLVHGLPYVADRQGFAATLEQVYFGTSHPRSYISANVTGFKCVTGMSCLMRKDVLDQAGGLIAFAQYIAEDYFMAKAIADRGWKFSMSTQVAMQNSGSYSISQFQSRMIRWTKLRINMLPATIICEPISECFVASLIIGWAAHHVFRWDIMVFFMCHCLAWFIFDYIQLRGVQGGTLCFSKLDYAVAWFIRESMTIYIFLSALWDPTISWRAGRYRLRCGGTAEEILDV
Experimental: (§1) After the mixture was cultured for 40 hours, the resulting culture was harvested and pulverized in a homogenized buffer (50 mM Hepes, 0.32M sucrose) by using a chip type sonicator to prepare an enzyme source.
After ^3 H-GlcCer which was a reaction product was extracted with t-butyl methyl ether, the extract was concentrated and evaporated to dryness, and its radioactivity was measured.

[4] = test system: LacCer (lactosylceramide) synthase; assay: Enzyme activity in treated cerebral cortex culture: LacCer synthase; assay type: cell-based, rat; conditions: culture treated with 15 μM for 40 hours
Experimental: as §1
GlcCer as an acceptor substrate was reacted with 0.315mM UDP (uridine diphosphate)-^3 H galactose (2.7×10^8 cpm) as a donor substrate. After the mixture containing ^3 H-LacCer which was a reaction product was developed by a silica gel thin layer plate, a portion corresponding to the reaction product was scratched off, and its radioactivity was counted.

GM3 synthase = assay: Enzyme activity in treated cerebral cortex culture: GM3 synthase; assay type: cell-based, rat; conditions: culture treated with 15 μM for 40 hours
Experimental: as §1
After the mixture containing a reaction product was developed by a reverse phase thin layer plate, a portion corresponding to the reaction product was scratched off, and its radioactivity was counted.

GD3 synthase = assay: Enzyme activity in treated cerebral cortex culture: GD3 synthase; assay type: cell-based, rat; conditions: culture treated with 15 μM for 40 hours
Experimental: as §1
GM3 as an acceptor substrate was reacted with 30 mM CMP-^14 C sialic acid (2.88×10^6 cpm) as a donor substrate. After the mixture containing a reaction product was developed by a reverse phase thin layer plate, a portion corresponding to the reaction product was scratched off, and its radioactivity was counted.

[5] = test system: serine palmitoyltransferase; assay: Enzyme activity in treated cerebral cortex culture: serine palmitoyltransferase; assay type: cell-based, rat; conditions: culture treated with 15 μM for 40 hours
Experimental: as §1
1.5 mM palmitoyl CoA (coenzyme A) and 0.1 mM ^14 C serine (8.3×10^5 cpm) were reacted in the presence of 0.5 mM pyridoxalphosphoric acid. After 3-keto-sphingosine which was a reaction product was extracted, the extract was concentrated and evaporated to dryness, and its radioactivity was counted.

[6] = test system: acyl-CoA: sphingosine N-acyltransferase; assay: Enzyme activity in treated cerebral cortex culture: acyl-CoA: sphingosine N-acyltransferase; assay type: cell-based, rat; conditions: culture treated with 15 μM for 40 hours
Experimental: as §1
0.25 mM sphingosine and 0.45 mM ^14 C palmitoyl CoA (8.3×10^5cpm) were reacted in the presence of ATP (adenosine 5'-triphosphate). After ceramide which was a reaction product was subjected to solvent extraction, the extract was concentrated and evaporated to dryness, and its radioactivity was counted.

explants = assay: Neurite-extending activity in explants (Example 6); assay type: cell-based; conditions: 5 μM to 15 μM, cultured for 40 hours, FIG. 5
Experimental: 1.6×10^5 cells/well of explants were sowed in a plate with 24 wells containing a DMEM medium. […] After the mixture was cultured for 40 hours, the resulting culture was fixed and then dyed with Coomassie, and nervous fibers extended to have a length which was longer than a diameter of […] were counted.

[7] = target: T2, glucosylceramide biosynthesizing enzyme (Mus musculus, UniProt O88693); conditions: J. Lipid. Res., vol. 28, pp. 565-571, 1987; cited from earlier work
T2 sequence (O88693 1-394): T1 sequence (Q9R0E0 1-394) with E96D, R164K, K249R, A377T

GSL = conditions: J. Lipid. Res., vol. 28, pp. 565-571, 1987; cited from earlier work
neurites = conditions: J. Biochem., vol. 110, pp. 96-103, 1991; cited from earlier work
[8] = test system: rats with spacial recognition disorder caused by repeated cerebral ischemia; assay: Maze radiated in 8 directions after repeated cerebral ischemia (Example 9); assay type: in vivo; conditions: 40 mg/kg i.p. twice a day for 6 days
Experimental: Wister albino male rats (weight: 250 to 280 g) were used, and training of a task of a maze which was radiated in 8 directions was conducted once a day to make the rats acquire spacial recognition. The rats which had acquired spacial recognition were subjected to cauterization of vertebral arteries and operation of peeling common carotid arteries according to the method of Pulsinelli, Brierly, et al. (Stroke, vol. 10, p. 267, 1979). […] The ischemia treatment was carried out by repeating ischemia twice, i.e., ligating common carotid arteries for 10 minutes by using clips without anesthesia and further ligating them for 10 minutes after 1 hour from restarting of blood flow. Retention trial was carried out one week after the ischemia treatment, and the results were represented by the number of correct choices among first 8 choices, whether all of 8 baits were taken or not, or the number of errors within an observation period a maximum of which was 10 minutes. Further, a pharmaceutical effect was evaluated by 3 ranks, i.e., remarkably effective (showing that the number of correct choices is 7 or more and the number of errors is 1 or less), effective (showing that the number of correct choices is 7 or more and the number of errors is 2 or 3) and ineffective (showing that the number of errors is 4 or more), and represented as an improvement rate thereof.
In the above experiment, examined was influence of continuous administration of 40 mg/kg of PDMP (i.p.) twice a day for 6 days started after 24 hours from the ischemia treatment, which was exerted on the spacial recognition disorder one week after the repeated cerebral ischemia, in the task of the maze which was radiated in 8 directions using the rats.

[9] = started 24 hours after ischemia, retention trial one week after ischemia, FIG. 7

Compound: CCCCCCCCCC(=O)N[C@H](CN1CCOCC1)[C@H](O)c1ccccc1 (relative stereo) [DL-threo-PDMP, 1-phenyl-2-decanoylamino-3-morpholino-1-propanol]
decrease in weight / decrease in neutrophile, acidocyte due to suppression of bone marrow (ICR mice; in Myrj 52): neither decrease in weight nor decrease in neutrophile, acidocyte, etc. due to suppression of bone marrow was observed | abnormality on observation for 3 months (ICR mice; observation for 3 months): no abnormality was observed

ganglioside level as compared with that of the control ([1]; 20 μM, 3 days): decrease in the ganglioside level | Accelerating activity when enzyme activity of control is defined as 100%: GlcCer-synthase [3]: no change in the activities was observed | Accelerating activity when enzyme activity of control is defined as 100%: LacCer synthase [4]: no change in the activities was observed | Accelerating activity when enzyme activity of control is defined as 100%: GM3 synthase (GM3 synthase): no change in the activities was observed | Accelerating activity when enzyme activity of control is defined as 100%: GD3 synthase (GD3 synthase): no change in the activities was observed | Accelerating activity when enzyme activity of control is defined as 100%: Serine palmitoyltransferase [5]: no change in the activities was observed | Accelerating activity when enzyme activity of control is defined as 100%: Acyl-CoA: sphigosine N-acyltransferase [6]: no change in the activities was observed
Compound: CCCCCCCCCC(=O)N[C@H](CN1CCOCC1)[C@H](O)c1ccccc1 [D-threo-PDMP, 1-phenyl-2-decanoylamino-3-morpholino-1-propanol]
activity at 20 µM ([1]; Rattus norvegicus, 72 h, culture for 3 days, control defined as 100%): 63.4% | number of synapse formation (frequency of intracellular Ca2+ fluctuation) [2]: suppressedly acted on synapse formation | effect on neurite extension (explants): moderate suppression of neurite extension | inhibition of glucosylceramide biosynthesizing enzyme [7]: specifically inhibits a glucosylceramide biosynthesizing enzyme | intracellular content of all GSL (GSL): extremely decreases an intracellular content of all GSL | extension of neurites (neurites): extension of neurites is suppressed

Compound: CCCCCCCCCC(=O)NC(CN1CCOCC1)C(O)c1ccccc1 (stereo not drawn) [PDMP, 1-phenyl-2-decanoylamino-3-morpholino-1-propanol]
number of the correct choices versus vehicle group [8, 9]: increase of the number of the correct choices | number of the errors versus vehicle group [8, 9]: decrease of the number of the errors | improvement rate: rats in the remarkably effective rank ([8]; 4/8 rats, FIG. 8): 50%
